Source: patent publication US20240277732A1, “COMPOSITIONS AND METHODS FOR TREATING BRAIN-GUT DISORDERS” (Enterin, Inc., priority 2018, published 2024)
“Also recorded” adds a separate entry of the source. Values belong to the compound of their own block, whether it stands above or below them.

Tests used:
[1] = Brain distribution of radiolabeled Aminosterol 1436 after IV or ICV administration; type: in vivo; settings: rats
Text: The purpose of this example was to evaluate the in vivo distribution of Aminosterol 1436 following intracerebroventricular (ICV) and intravenous (IV) administration to rats. ICV injection is an invasive injection technique of substances directly into the cerebrospinal fluid in cerebral ventricles to bypass the blood brain barrier. The results described below detail how aminosterols such as Aminosterol 1436 localize in the brain following in vivo administration, regardless of the route of administration.
Radiolabeled Aminosterol 1436 was injected into rats by two different forms of administration: ICV and IV administration.

[2] = Brain distribution, food intake and body weight after IP or ICV administration; type: in vivo; settings: 10 and 40 μg ICV, 5 mg/kg IP
Text: The purpose of this example was to evaluate the in vivo distribution of the aminosterol Aminosterol 1436 following intraperitoneal administration (IP) and ICV administration, and to determine the impact the drug has on food intake and body weight when administered IP and ICV.
Additional data regarding in vivo distribution and the effect of the route of administration for an aminosterol is shown in FIG. 7.
This experiment is relevant as the areas of the brain where the aminosterol Aminosterol 1436 localized upon administration are known to control feeding behavior and appetite.

[3] = Intranasal pharmacokinetics in plasma; type: in vivo, Sprague Dawley rats; settings: Sprague-Dawley, rat, in vivo
Text: The purpose of this example was to evaluate the in vivo distribution and function of aminosterols, such as Aminosterol 1436 and squalamine, following intranasal administration. This experiment relates to the amount of drug needed to obtain a therapeutic result, based on an IN route of administration. The results described below detail that aminosterols such as Aminosterol 1436 act at the level of the hypothalamus following in vivo administration, regardless of the route of administration.

[4] = Weight change after IP or IN administration; type: in vivo; settings: mice
Description: The purpose of this example was to evaluate and compare the impact on weight following administration of an aminosterol such as Aminosterol 1436 to mice via IP or IN.
Mice were administered: (i) intraperitoneally 1 mg/kg or 10 mg/kg of Aminosterol 1436, (ii) intranasally 0.4 mg/kg of Aminosterol 1436, or (iii) a saline control administered IN. Weight of the mice was then measured for 10 days post-administration.

[5] = PK profile IN versus IV bolus; type: in vivo; settings: rat, 2 mg/kg IV bolus
Text: Thus, the amount of aminosterol in the bloodstream is too low to account for the observed pharmacological effect. This means that when administered IN, an aminosterol is having a pharmacological effect via a mechanism other than via plasma concentration of the drug.

[6] = tested on: patients with PD and constipation; experiment: Phase 2 trial Stage 2: bowel function under daily oral dosing (stool diary, PAC-QOL, PAC-SYM); type: in vivo, human
Description: Following successful screening, all subjects underwent a 14-day run-in period where the degree of constipation was assessed through a validated daily log (Zinsmeister et al. 2013) establishing baseline CSBMs/week. Subjects with an average of <3 CSBMs/week proceeded to dosing.
(§1) In Stage 2, 34 patients were evaluated.
The primary efficacy outcome variable was whether or not a subject was a “success” or “failure”. This is an endpoint based on subject diary entries for the “fixed dose” period prior to the endpoint assessment defined as average complete stool frequency increase by 1 or more over baseline, or 3 or more complete spontaneous stools/week. The subject was deemed a “success” if s/he met one or more of the criteria listed above, otherwise the subject was deemed a “failure”. The primary analysis was based on all subjects with a baseline assessment and an assessment at the end of the “fixed-dose” period and was a comparison of the proportion of successes with 0.10 (the null hypothesis corresponding to no treatment effect).

[7] = tested on: patients with PD and constipation; experiment: Phase 2 trial: adverse events (MedDRA, CTCAE grading); type: in vivo, human
Description: Tolerability limits included diarrhea or vomiting.
as §1

[8] = Phase 2 trial: pharmacokinetics of orally administered squalamine (ENT-01); type: in vivo, human; settings: estimated against IV squalamine PK of prior clinical studies
Description: Pharmakokinetics: PK data were collected on the 10 patients enrolled in Stage 1 and 10 patients enrolled in Stage 2 to determine the extent of systemic absorption. In Stage 1, PK data were obtained at each visit, pre-medication, at 1, 2, 4, 8 and 24 hours (Table 10). In Stage 2, PK was measured on days 1 and 6 of the randomization period pre-medication, at 1, 2, 4 and 8 hours (Table 11).
The mean Cmax, Tmax and T1/2 and AUC of the squalamine ion following squalamine (ENT-01) oral dosing for Stage 1 patients. The PK analyses are only approximate, as the lower limit of the validated concentration range was 10 ng/ml; most of the measured concentrations fell below that value. The mean Cmax, Tmax and T1/2 and AUC of the squalamine ion following squalamine (ENT-01) oral dosing for Stage 2 patients. The PK analyses are only approximate, as the lower limit of the validated concentration range was 0.5 ng/ml.

[9] = tested on: patients with PD and constipation; experiment: Phase 2 trial Stage 2: CNS symptoms (UPDRS, MMSE, PDHQ, BDI-II, sleep diary); type: in vivo, human
Text: Exploratory end-points, in addition to constipation, included for example, (i) depression assessed using the Beck Depression Inventory (BDI-II) (Steer et al. 2000) and Unified Parkinson's Disease Rating Scale (UPDRS); (ii) cognition assessed using the Mini Mental State Examination (MMSE) (Palsteia et al. 2018), Unified Parkinson's Disease Rating Scale (UPDRS), and Trail Making Test (TMT); (iii) sleep and REM-behavior disorder (RBD) using a daily sleep diary, I-Button Temperature Assessment, a REM sleep behavior disorder (RBD) questionnaire (RBDQ) (Stiasny-Kolster et al. 2007), and the UPDRS; (iv) hallucinations assessed using the PD hallucinations questionnaire (PDHQ) (Papapetropoulos et al. 2008), the UPDRS, and direct questioning; (v) fatigue using the Parkinson's Disease Fatigue Scale (PFS-16) and the UPDRS; (vi) motor functions using the UPDRS; and (vii) non-motor functions using the UPDRS.
(§2) Assessments were made at baseline and at the end of the fixed dose and washout periods. Circadian system status was evaluated by continuously monitoring wrist skin temperature (Thermochron iButton DS1921H; Maxim, Dallas) following published procedures (Sarabia et al. 2008).
CNS Symptoms in Stage 2: An exploratory analysis was done with respect to the sleep data, the body temperature data, mood, fatigue, hallucinations, cognition and other motor and non-motor symptoms of PD. Continuous measurements within a subject were compared with a paired t-test and continuous measurements between subject groups were compared with a two-group t-test. Categorical data were compared with a chi-squared test or a Fisher's exact test if the expected cell counts are too small for a chi-squared test.

[10] = tested on: patients with PD and constipation; experiment: Phase 2 trial Stage 2: circadian rhythm of wrist skin temperature; type: in vivo, human
Description: as §2
Circadian rhythm of skin temperature was evaluable in 12 patients (i.e., those who had recordings that extended from baseline through washout). Circadian system functionality was evaluated by continuously monitoring wrist skin temperature using a temperature sensor (Thermochron iButton DS1921H; Maxim, Dallas, TX) (Sarabia et al. 2008). A nonparametric analysis was performed for each participant to characterize DST as previously described (Sarabia et al. 2008; Ortiz-Tudela et al. 2010). […]
Briefly, this analysis includes the following parameters: (i) the inter-daily stability (the constancy of 24-hour rhythmic pattern over days, IS); (ii) intra-daily variability (rhythm fragmentation, IV); (iii) average of 10-minute intervals for the 10 hours with the minimum temperature (L10); (iv) average of 10-minute intervals for the 5 hours with the maximum temperature (M5) and the relative amplitude (RA), which was determined by the difference between M5 and L10, divided by the sum of both. Finally, the Circadian Function Index (CFI) was calculated by integrating IS, IV, and RA. […]

[11] = Phase 2 trial Stage 2: systolic blood pressure; type: in vivo, human

- site of localization in brain ([1]; IV administration): localized in the hypothalamus
- blood levels after intranasal versus peripherally injected administration [3]: 10 times
- AUC_% Extrap_obs ([3]; 0.5 mg/kg): 47.6%
- AUClast/D ([3]; 0.5 mg/kg): 18700 kg·ng·h/mL/mg
- exposure after IV bolus injection [5]: 190 µg·h/mL
SMILES: CC(C)[C@@H](CC[C@@H](C)[C@H]1CC[C@H]2[C@@H]3[C@H](O)C[C@H]4C[C@@H](NCCCNCCCCNCCCN)CC[C@]4(C)[C@H]3CC[C@]12C)OS(=O)(=O)O [Aminosterol 1436]
- site of localization in brain ([1]; ICV administration): localized to the same regions of the brain
- effect on food intake over 10 days [2]: significant impact on food intake
- percent change in body weight [2]: decrease in body weight
- weight change over 10 days ([4]; 0.4 mg/kg IN): decrease in the weight of the mice in an amount comparable to 10 mg/kg of intraperitoneally administered Aminosterol 1436
- weight change over 10 days ([4]; 1 mg/kg IP): compared similarly to the intranasally administered saline control

SMILES: CC(C)[C@@H](CC[C@@H](C)[C@H]1CC[C@H]2[C@@H]3[C@H](O)C[C@H]4C[C@@H](NCCCNCCCCN)CC[C@]4(C)[C@H]3CC[C@]12C)OS(=O)(=O)O (single isomer, unassigned) [squalamine (ENT-01)]
- response rate (CSBM within 24 h of dosing on at least 2 of 3 days) ([6]; Stage 2, daily oral dosing, 75 mg): 26%
- CSBM, weekly average (mean, SD) ([6]; Stage 2, fixed dose, n=34, baseline 1.2 (0.90)): 3.8 (2.4) /week
- CSBM frequency ([6]; patients later randomized to placebo (n=9), fixed dose period on drug, baseline 1.6): 3.3 CSBM/week
- CSBM frequency ([6]; randomized cohort, treatment arm (n=6), fixed dose period, baseline 0.8): 3.2 CSBM/week
- CSBM frequency ([6]; randomized cohort, treatment arm (n=6), randomized period 4-6 days, baseline 0.8): 2.4 CSBM/week
- CSBM frequency ([6]; randomized cohort, treatment arm (n=6), washout, baseline 0.8): 0.9 CSBM/week
- Nausea, Mild ([7]; Stage 1 (10 dosed)): 4(40) n, %
- Diarrhea, adverse events by dose ([7]; Stage 1, 25 mg): 1
- Nausea, adverse events by dose ([7]; Stage 1, 25 mg): 0
- Vomiting, adverse events by dose ([7]; Stage 1, 25 mg): 0
- Diarrhea, adverse events by dose ([7]; Stage 1, 50 mg): 1
- Nausea, adverse events by dose ([7]; Stage 1, 50 mg): 0
- Vomiting, adverse events by dose ([7]; Stage 1, 50 mg): 0
- Diarrhea, adverse events by dose ([7]; Stage 1, 75 mg): 1
- Nausea, adverse events by dose ([7]; Stage 1, 75 mg): 0
- Vomiting, adverse events by dose ([7]; Stage 1, 75 mg): 0
- Diarrhea, adverse events by dose ([7]; Stage 1, 100 mg): 0
- Nausea, adverse events by dose ([7]; Stage 1, 100 mg): 1
- Vomiting, adverse events by dose ([7]; Stage 1, 100 mg): 1
- Diarrhea, adverse events by dose ([7]; Stage 1, 125 mg): 1
- Nausea, adverse events by dose ([7]; Stage 1, 125 mg): 2
- Vomiting, adverse events by dose ([7]; Stage 1, 125 mg): 1
- Diarrhea, adverse events by dose ([7]; Stage 1, 150 mg): 1
- Nausea, adverse events by dose ([7]; Stage 1, 150 mg): 0
- Vomiting, adverse events by dose ([7]; Stage 1, 150 mg): 0
- Diarrhea, adverse events by dose ([7]; Stage 1, 175 mg): 1
- Nausea, adverse events by dose ([7]; Stage 1, 175 mg): 1
- Vomiting, adverse events by dose ([7]; Stage 1, 175 mg): 0
- Diarrhea, adverse events by dose ([7]; Stage 1, 200 mg): 0
- Nausea, adverse events by dose ([7]; Stage 1, 200 mg): 2
- Vomiting, adverse events by dose ([7]; Stage 1, 200 mg): 0
- Difficulty falling asleep, Mild ([7]; Stage 2 (34 dosed)): 1(3) n, %
- Eye infection, Mild ([7]; Stage 2 (34 dosed)): 1(3) n, %
- Flatulence, Mild ([7]; Stage 2 (34 dosed)): 1(3) n, %
- Urinary retention, Mild ([7]; Stage 2 (34 dosed)): 1(3) n, %
- Urinary tract infection, Mild ([7]; Stage 2 (34 dosed)): 1(3) n, %
- Worsening hemorrhoid, Mild ([7]; Stage 2 (34 dosed)): 1(3) n, %
- Diarrhea, adverse events by dose ([7]; Stage 2, 75 mg): 7
- Dizziness (lightheadedness included), adverse events by dose ([7]; Stage 2, 75 mg): 8
- Nausea, adverse events by dose ([7]; Stage 2, 75 mg): 3
- Diarrhea, adverse events by dose ([7]; Stage 2, 100 mg): 10
- Dizziness (lightheadedness included), adverse events by dose ([7]; Stage 2, 100 mg): 7
- Nausea, adverse events by dose ([7]; Stage 2, 100 mg): 12
- Diarrhea, adverse events by dose ([7]; Stage 2, 125 mg): 3
- Dizziness (lightheadedness included), adverse events by dose ([7]; Stage 2, 125 mg): 8
- Nausea, adverse events by dose ([7]; Stage 2, 125 mg): 4
- Diarrhea, adverse events by dose ([7]; Stage 2, 150 mg): 2
- Dizziness (lightheadedness included), adverse events by dose ([7]; Stage 2, 150 mg): 2
- Nausea, adverse events by dose ([7]; Stage 2, 150 mg): 11
- Diarrhea, adverse events by dose ([7]; Stage 2, 175 mg): 1
- Dizziness (lightheadedness included), adverse events by dose ([7]; Stage 2, 175 mg): 0
- Nausea, adverse events by dose ([7]; Stage 2, 175 mg): 12
- Diarrhea, adverse events by dose ([7]; Stage 2, 200 mg): 3
- Nausea, adverse events by dose ([7]; Stage 2, 200 mg): 6
- Diarrhea, adverse events by dose ([7]; Stage 2, 225 mg): 3
- Nausea, adverse events by dose ([7]; Stage 2, 225 mg): 1
- Diarrhea, adverse events by dose ([7]; Stage 2, 250 mg): 2
- oral bio-availability [8]: less than 0.3%
- time hallucinations did not return after discontinuation ([9]; 1 patient): 4 weeks
- time hallucinations did not return after discontinuation ([9]; another patient): 2 weeks
- patients in whom hallucinations and delusions improved or disappeared during treatment ([9]; of those with hallucinations (5) or delusions (1) at baseline): 5 of 6
- markers of healthy circadian function (IS, RA, CFI, IV) ([10]; fixed dose versus baseline, 12 evaluable patients): improved all markers of healthy circadian function; also recorded: significant positive impact on the circadian rhythm of skin temperature
- circadian parameters during wash-out (IS, CFI) ([10]; wash-out versus baseline): improvement persisted for several of these circadian parameters
- change of blood pressure at post medication measurement ([11]; Stage 2 subjects with high or low blood pressure): subjects with high blood pressure demonstrated lower blood pressure at post medication measurement, while subjects with low blood pressure demonstrated higher blood pressure
- BP at V4 + 2 hrs post dose ([11]; individual subjects): 111 mmHg
